In ChEMBL document CHEMBL1134372, “Bisphosphonates inhibit the growth of Trypanosoma brucei, Trypanosoma cruzi, Leishmania donovani, Toxoplasma gondii, and Plasmodium falciparum: a potential route to chemotherapy” (J Med Chem, 2001):

Experiments:
Trypanosoma brucei [1] = experiment: Inhibition of Trypanosoma rhodesiense (strain STIB900) was determined using blood stream from trypomastigotes; format: functional, organism-based
Leishmania donovani [2] = experiment: Inhibition of L. donovani (Amastigotes) strain MHOM/ET/67/L82 maintained in female golden hamsters; format: functional, organism-based
Trypanosoma cruzi [3] = experiment: Inhibition of Trypanosoma cruzi Amastigotes was determined in γ-irradiated L6E9 myoblasts culture and fetal calf serum
Plasmodium falciparum = experiment: Inhibition of Plasmodium falciparum 3D7 in erythrocytes; format: functional, organism-based
Toxoplasma gondii = experiment: Inhibition of Toxoplasma gondii tachyzoites in human foreskin fibroblast monolayer(DMEM with 10%fetal calf serum); format: functional, organism-based
Leishmania donovani [4] = experiment: Inhibition of L. donovani (Amastigotes) strain MHOM/ET/67/L82 maintained in pathogen free spleen from female golden hamsters; toxic; format: functional, organism-based
Trypanosoma cruzi [5] = experiment: microbe, parasite or virus in culture
Description: Compound was evaluated for anti-parasitic activity against Trypanosoma cruzi

Trypanosoma cruzi [6] = experiment: Inhibition of Trypanosoma cruzi Amastigotes was determined in γ-irradiated L6E9 myoblasts culture and fetal calf serum; remark: listed apart in the source
Trypanosoma cruzi [7] = experiment: Effect on inhibition on proliferation of Trypanosoma cruzi Amastigotes in vero cells at a conc of 150 uM; format: functional
Vero [8] = experiment: Percent infected vero cells was determined; format: functional
Vero [9] = experiment: Percent infected Vero cells was determined; format: functional
Trypanosoma cruzi [10] = experiment: Effect on proliferation of Trypanosoma cruzi Amastigotes in vero cells at a conc of 150 uM was determined; format: functional
Leishmania donovani [11] = experiment: Inhibition of L. donovani (Amastigotes) strain MHOM/ET/67/L82 maintained in pathogen free spleen from female golden hamsters; format: functional, organism-based
Trypanosoma brucei [12] = experiment: Compound was evaluated for anti-parasitic activity against Trypanosoma brucei; format: functional, organism-based

IC50 (Trypanosoma brucei [1])	IC50 (Leishmania donovani [2])	IC50 (Trypanosoma cruzi [3])	IC50 (Plasmodium falciparum)	SMILES	IC50 (Toxoplasma gondii; read-out: IC50)	other results
62.4 µM	> 200 µM	> 200 µM	5.1 µM	CCCCCC(O)(P(=O)(O)O)P(=O)(O)O	–	–
5.4 µM	> 200 µM	> 200 µM	> 200 µM	CN(C)CCC(O)(P(=O)(O)O)P(=O)(O)O [OLPADRONIC ACID]	–	–
40 µM	> 200 µM	> 200 µM	> 200 µM	Nc1ccc(CC(O)(P(=O)(O)O)P(=O)(O)O)cc1	68.2 µM	–
177 µM	–	60 µM	> 200 µM	NCCC(O)(P(=O)(O)O)P(=O)(O)O [PAMIDRONIC ACID]	35.6 µM	IC50 (Leishmania donovani [4]): Toxic
–	–	–	–	O=C(Cn1ccnc1[N+](=O)[O-])NCc1ccccc1 [BENZNIDAZOLE]	–	IC50 (Trypanosoma cruzi [5]): 3.5 µM
> 200 µM	82.5 µM	25 µM	> 200 µM	NCCCC(O)(P(=O)(O)O)P(=O)(O)O [ALENDRONIC ACID]	–	–
> 200 µM	> 200 µM	–	> 200 µM	O=P(O)(O)C(O)(Cc1ccncc1)P(=O)(O)O	> 200 µM	IC50 (Trypanosoma cruzi [6]): > 200 µM
8.6 µM	2.3 µM	123 µM	123 µM	O=P(O)(O)C(O)(Cc1cccnc1)P(=O)(O)O [RISEDRONIC ACID]	0.49 µM	inhibition at 150 µM (Trypanosoma cruzi [7]): 100%; Infected (Vero [8]): 0%
21.3 µM	> 200 µM	> 200 µM	7.7 µM	O=P(O)(O)C(O)(Cc1ccccc1)P(=O)(O)O	–	Infected (Vero [9]): 30%; inhibition at 150 µM (Trypanosoma cruzi [10]): 6%
0.22 µM	–	105 µM	> 200 µM	O=P(O)(O)C(O)(Cc1ccccn1)P(=O)(O)O	9.1 µM	IC50 (Leishmania donovani [4]): Toxic
31.7 µM	> 200 µM	> 200 µM	> 200 µM	NCCCCCC(O)(P(=O)(O)O)P(=O)(O)O [NERIDRONIC ACID]	–	–
8.6 µM	–	35 µM	> 200 µM	O=P(O)(O)C(O)(Cc1c[nH]cn1)P(=O)(O)O	–	IC50 (Leishmania donovani [4]): Toxic
0.7 µM	–	147 µM	> 200 µM	Cc1cccnc1NC(P(=O)(O)O)P(=O)(O)O	–	IC50 (Leishmania donovani [4]): Toxic
1.7 µM	> 200 µM	> 200 µM	> 200 µM	O=P(O)(O)C(O)(CCc1cccnc1)P(=O)(O)O	> 200 µM	Infected (Vero [8]): 6%; inhibition at 150 µM (Trypanosoma cruzi [10]): 81%
> 200 µM	129 µM	> 200 µM	> 200 µM	NCCCCC(O)(P(=O)(O)O)P(=O)(O)O	> 200 µM	–
19.8 µM	> 200 µM	> 200 µM	158 µM	O=P(O)(O)C(O)(CSc1ccncc1)P(=O)(O)O	–	Infected (Vero [9]): 33%; inhibition at 150 µM (Trypanosoma cruzi [10]): 0%
–	–	–	–	N=C(N)c1ccc(OCCCCCOc2ccc(C(=N)N)cc2)cc1 [PENTAMIDINE]	–	IC50 (Trypanosoma brucei [12]): 0.035 µM
27.9 µM	82.1 µM	> 200 µM	> 200 µM	CCOP(=O)(OCC)C(Nc1ncccc1C)P(=O)(OCC)OCC	–	Infected (Vero [9]): 9%; inhibition at 150 µM (Trypanosoma cruzi [10]): 69%

SMILES	IC50 (Trypanosoma brucei [1])	IC50 (Leishmania donovani [2])	IC50 (Trypanosoma cruzi [3])	IC50 (Plasmodium falciparum)	IC50 (Toxoplasma gondii; read-out: IC50)	other results
CCCC(O)(P(=O)(O)O)P(=O)(O)O	92 µM	> 200 µM	> 200 µM	130 µM	–	IC50 (Toxoplasma gondii): 9.1 µM
CC(N)CC(O)(P(=O)(O)O)P(=O)(O)O (stereo unspecified)	7.8 µM	–	> 200 µM	> 200 µM	–	IC50 (Leishmania donovani [11]): > 200 µM
CCCCC(O)(P(=O)(O)O)P(=O)(O)O	99.8 µM	> 200 µM	> 200 µM	56.7 µM	–	–
